Test results from patent publication US9217743B2, “Screening method utilizing thalidomide-targeting factor” (Tokyo Institute of Technology, priority 2009, dated 2015).
Entries after “also recorded” stand apart in the source; their conditions may differ.

How the values were obtained:
fgf8a = test: Whole-mount in situ hybridization of zebrafish fin buds; type: in vivo
From the text: (§1) To obtain a clue to the pathway(s) downstream of CRBN and thalidomide, the present inventors analyzed well-known key molecules in fin development. Sonic hedgehog (Shh) is expressed in the zone of polarizing activity (ZPA) and is responsible for anteroposterior patterning of the limb and fin (Cited Literature 27), whereas Fgf8 is expressed in the apical ectodermal ridge (AER) of the limb and fin and is necessary for outgrowth of the limb and fin along the proximodistal axis. […] Thus, an inhibitor of FGF8 production is a possible downstream target of thalidomide and the CRBN-containing E3 complex.
(§2) This assay was carried out in accordance with Cited Literature 41. Antisense probe for zcrbn mRNA was directed against the 5′-coding region of 513 bp. Antisense probe for zcul4a was directed against the 3′ untranslated region (3′ UTR) of 590 bp. Probes for shh and fgf8 were kindly provided by Dr. Krauss and Dr. Thisse, respectively. To increase permeability of probes, fixed embryos were incubated with PBS containing 0.1% Tween-20 and […] proteinase K for two minutes at room temperature.

shh = test: as above; type: in vivo; settings: thalidomide-treated 48-hpf embryos
From the text: as §1, §2

zebrafish embryos = test: Zebrafish embryo development, pectoral fins and otic vesicles; type: in vivo, zebrafish (Danio rerio)
From the text: To elucidate possible effects of thalidomide on zebrafish development, dechorionated embryos were transferred to media containing various concentrations of thalidomide. […] More specifically, formation of the endoskeletal disc of the pectoral fin was inhibited at 75 hpf (FIG. 4A), and the size of otic vesicles at 30 hpf was reduced (FIG. 4B). Retardation of pectoral fin development was also detected at 48-hpf embryos (FIGS. 5C and D). Recent studies have reported that development of pectoral fins and otic vesicles in teleosts (including zebrafish) shares common molecular mechanisms with the limb and ear development in tetrapods (Cited Literatures 24 to 26).
Thalidomide was dissolved in DMSO and added to a final concentration of 400 μM to E3 medium prewarmed to […]. Zebrafish embryos were dechorionated prior to thalidomide as follows: At 2 hpf, the embryos were incubated in E3 medium containing 2 mg/ml Protease type XIV (Sigma) for three minutes and then washed five times with the medium. After dechorionation, embryos were immediately transferred to E3 medium containing thalidomide, and observed for three days. The thalidomide-containing medium was exchanged every 12 hours.
Extracellular matrices associated with chondrocytes were stained with Alcian blue (Cited Literature 40). Zebrafish embryos were fixed in 3.7% neutral buffered formaldehyde for overnight. The next day, the embryos were washed with 100% ethanol and rehydrated with PBS. Subsequently, the embryos were incubated with a solution of 0.05% trypsin in saturated sodium tetraborate for one to three hours. Pigmentation of fish was removed by 3% hydrogen peroxide/1% potassium hydroxide solution. Stained embryos were stored in 70% glycerol-containing PBS solution.
Microinjection into one-cell stage embryos was carried out in accordance with Cited Literature 39. The present inventors used a nitrogen gas-pressure microinjector (IM 300, Narishige Co., Ltd.) for injection. Capped mRNAs were prepared in vitro using the mMESSAGE mMACHINE in vitro transcription kit (Ambion).
Zebrafish embryos at 48 hpf were anesthetized with 1% methylcellulose and 0.003% 3-amino benzoic acid ethyl ester (Sigma) and mounted on a slide glass. Then, otic vesicles of ten embryos randomly selected from each sample were photographed. The size was measured using the NIH image J software and compared to that of control. Average sizes and standard errors were calculated, and p-values were determined by the Mann-Whitney U test.

CRBN Y384A = biological target: T1, CRBN Y384A (Homo sapiens, UniProt Q96SW2, Y384A); test: Binding of CRBN point mutant from 293T extracts to thalidomide-immobilized beads
T1 construct: expressed in transfected cells; host or cells: 293T
T1 sequence (Q96SW2 whole entry Y384A): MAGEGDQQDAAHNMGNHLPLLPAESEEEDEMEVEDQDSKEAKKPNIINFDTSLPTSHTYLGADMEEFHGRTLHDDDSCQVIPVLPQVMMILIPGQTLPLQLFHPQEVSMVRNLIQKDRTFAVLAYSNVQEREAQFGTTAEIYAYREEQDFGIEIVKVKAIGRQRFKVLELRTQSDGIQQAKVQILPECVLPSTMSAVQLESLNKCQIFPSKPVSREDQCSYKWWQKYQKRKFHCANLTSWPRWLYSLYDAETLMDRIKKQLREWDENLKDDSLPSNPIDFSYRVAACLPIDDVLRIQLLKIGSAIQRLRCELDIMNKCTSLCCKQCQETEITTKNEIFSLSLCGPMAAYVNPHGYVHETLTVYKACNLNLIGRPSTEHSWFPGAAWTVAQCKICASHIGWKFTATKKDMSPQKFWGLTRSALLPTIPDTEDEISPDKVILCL
From the text: (§3) First, thalidomide-binding region was investigated by using the N-terminal and C-terminal deletion mutants. […] The present inventors investigated whether this CRBN YW/AA functionally active in the cells. The subcellular localization of this mutant was indistinguishable from that of wild-type CRBN.
(§4) Recombinant CRBN-FLAG and DDB1-V5-His proteins were expressed in the insect Sf9 cells by using the Bac-to-bac baculovirus expression system (Invitrogen) and purified using anti-FLAG M2 agarose beads (Sigma) and Ni-NTA agarose beads (Qiagen), respectively. Purified CRBN-FLAG and/or DDB1-V5-His were mixed with thalidomide-immobilized beads, and the bound proteins were eluted with an SDS sample buffer. For analysis of CRBN-deletion mutant, GST-fused CRBN and its mutants were expressed in E. coli BL21 and purified using glutathione Sepharose (GE Healthcare). CRBN mutants were overexpressed in 293T cells by transfection using Lipofectamine 2000 (Invitrogen). Subsequent binding assays were carried out as described above.

CRBN W386A = biological target: T2, CRBN W386A (Homo sapiens, UniProt Q96SW2, W386A); test: as above
T2 construct: expressed in transfected cells; host or cells: 293T
T2 sequence (Q96SW2 whole entry W386A): as the sequence (Q96SW2 whole entry Y384A) above, with A384Y, W386A counted along it
From the text: as §3, §4

zCrbn = biological target: T3, zCrbn (Danio rerio, UniProt Q68EH9, D160E); test: Binding of FH-zCrbn from 293T extracts to thalidomide beads; parameters: species or system zebrafish; settings: FH-zCrbn in 293T extract
T3 construct: expressed in transfected cells; host or cells: 293T (stably expressing FH-zCrbn)
T3 sequence (Q68EH9 1-431 D160E): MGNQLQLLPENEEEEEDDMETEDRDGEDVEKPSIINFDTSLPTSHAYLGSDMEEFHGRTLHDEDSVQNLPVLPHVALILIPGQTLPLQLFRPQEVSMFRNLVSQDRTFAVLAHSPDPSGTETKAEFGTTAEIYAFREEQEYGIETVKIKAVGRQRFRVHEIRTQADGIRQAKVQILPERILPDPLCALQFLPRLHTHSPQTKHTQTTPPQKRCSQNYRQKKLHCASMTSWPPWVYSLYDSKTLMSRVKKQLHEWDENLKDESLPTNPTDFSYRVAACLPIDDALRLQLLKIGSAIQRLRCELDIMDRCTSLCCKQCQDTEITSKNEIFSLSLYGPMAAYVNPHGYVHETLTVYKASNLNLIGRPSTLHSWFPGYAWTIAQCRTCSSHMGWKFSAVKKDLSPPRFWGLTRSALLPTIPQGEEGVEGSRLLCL
Protocol: FIG. 14 relates to biochemical analysis results of zCrbn. […] Bound proteins were eluted by thalidomide, and eluate were analyzed by western blotting. zCrbn bound to thalidomide. (B) Lysate from 293T cells overexpressing FH-zCrbn was immunoprecipitated with anti-FLAG antibody, and DDB1 was detected by western blotting. […] (C) Lysate from FLAG-zCrbn (wild type) or FLAG-zCrbn YW/AA overexpressed in 293T cells was mixed with thalidomide beads. For quantification, various amounts of input and eluate fraction were analyzed by western blotting.

CRBN YW/AA (Y384A/W386A) = biological target: T4, CRBN YW/AA (Y384A/W386A) (Homo sapiens, UniProt Q96SW2, W386A/Y384A); test: Binding of CRBN double mutant from 293T extracts to thalidomide-immobilized beads
T4 construct: expressed in transfected cells; host or cells: 293T
T4 sequence (Q96SW2 whole entry Y384A/W386A): as the sequence (Q96SW2 whole entry Y384A) above, with W386A counted along it
From the text: as §3, §4

fgf8a expression (fgf8a; thalidomide-treated embryos injected with zCrbn YW/AA): restored | shh expression (shh): no change | size of otic vesicles, of the control size (zebrafish embryos; 400 μM thalidomide, uninjected embryos): 64.5% | size of otic vesicles (zebrafish embryos; 30 hpf): reduced | formation of the endoskeletal disc of the pectoral fin (zebrafish embryos; 75 hpf): inhibited | development of pectoral fins and otic vesicles (zebrafish embryos; embryos in thalidomide-containing media from 2 hpf): disturbed | size of otic vesicles, of the control size (zebrafish embryos; thalidomide, embryos overexpressing wild-type zCrbn): approximately 66% | size of otic vesicles (zebrafish embryos; thalidomide, embryos overexpressing zCrbn YW/AA): did not affect | thalidomide binding of CRBN Y384A (CRBN Y384A): defective | thalidomide binding of CRBN W386A (CRBN W386A): defective | binding of zCrbn to thalidomide (zCrbn): bound | thalidomide-binding activity of CRBN YW/AA (CRBN YW/AA (Y384A/W386A)): extremely low
SMILES: O=C1CCC(N2C(=O)c3ccccc3C2=O)C(=O)N1 (stereo not shown) [thalidomide]
fgf8a expression (fgf8a; thalidomide-treated 48-hpf embryos): reduced or absent; also recorded: severely reduced
